Columns and labels:
[1] = target: T1, USP5 (Homo sapiens, UniProt P45974); assay: HA-UbVS competitive labelling, non-proteasomal DUB; assay type: binding
T1 sequence (P45974 1-858): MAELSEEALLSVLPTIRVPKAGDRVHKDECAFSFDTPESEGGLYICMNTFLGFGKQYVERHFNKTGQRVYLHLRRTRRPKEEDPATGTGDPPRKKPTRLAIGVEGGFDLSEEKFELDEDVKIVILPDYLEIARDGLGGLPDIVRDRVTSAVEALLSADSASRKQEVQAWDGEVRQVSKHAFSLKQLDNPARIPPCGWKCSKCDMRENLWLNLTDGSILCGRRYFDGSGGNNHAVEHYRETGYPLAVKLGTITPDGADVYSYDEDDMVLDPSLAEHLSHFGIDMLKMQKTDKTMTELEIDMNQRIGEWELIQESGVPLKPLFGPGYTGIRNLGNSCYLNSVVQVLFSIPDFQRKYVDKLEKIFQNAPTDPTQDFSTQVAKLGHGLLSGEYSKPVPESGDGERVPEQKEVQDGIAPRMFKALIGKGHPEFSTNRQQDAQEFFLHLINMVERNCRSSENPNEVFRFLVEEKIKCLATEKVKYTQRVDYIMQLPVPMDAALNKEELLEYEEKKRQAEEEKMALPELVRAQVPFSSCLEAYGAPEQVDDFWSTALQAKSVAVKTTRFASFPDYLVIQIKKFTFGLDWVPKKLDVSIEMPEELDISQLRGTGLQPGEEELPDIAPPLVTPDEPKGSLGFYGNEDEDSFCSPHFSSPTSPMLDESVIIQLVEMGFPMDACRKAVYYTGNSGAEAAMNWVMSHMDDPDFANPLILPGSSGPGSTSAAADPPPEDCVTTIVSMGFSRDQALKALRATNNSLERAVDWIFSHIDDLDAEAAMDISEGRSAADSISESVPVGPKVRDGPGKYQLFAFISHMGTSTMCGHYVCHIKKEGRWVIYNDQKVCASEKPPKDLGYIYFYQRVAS
Excerpt: (§1) The deubiquitinating activity of the proteasome is attributed to the action of three DUBs, UCHL5, USP14 and POH1, all localized within the 19S RP 26-28. Both UCHL5 and USP14 are sensitive to N-ethylmaleimide (NEM), a general inhibitor of cysteine proteases, whereas POH1 is insensitive to inhibition by NEM but sensitive to metal chelators such as N,N,N,N-tetrakis-(2-pyridylmethyl)ethylenediamine (TPEN) (29). […] To identify specifically which DUBs were inhibited by b-AP15 treatment, competitive labelling experiments were performed using hemagglutinin tagged ubiquitin vinylsulphonone (HA-UbVS), an active site directed probe that irreversibly reacts with DUBs of the cysteine class (26).
(§2) For labelling of DUBs in cell lysates sub confluent cells were harvested by trypsinization, washed three times with PBS, and centrifuged at 1500 RPM for 5 min. Cell pellets were lysed with buffer (50 mM HEPES pH 7.4, 250 mM sucrose, 10 mM MgCl2, 2 mM ATP, 1 mM DTT) on ice for 15 min. Debris was removed by centrifugation and 25 μg of protein was labelled with 1 μM HA-UbVS for 30 min at 37° C. Samples were resolved by SDS-PAGE and analyzed by immunoblotting with indicated antibodies.

[2] = target: T2, UCHL1 (Homo sapiens, UniProt P09936); assay: HA-UbVS competitive labelling, non-proteasomal DUB; assay type: binding
T2 sequence (P09936 1-223): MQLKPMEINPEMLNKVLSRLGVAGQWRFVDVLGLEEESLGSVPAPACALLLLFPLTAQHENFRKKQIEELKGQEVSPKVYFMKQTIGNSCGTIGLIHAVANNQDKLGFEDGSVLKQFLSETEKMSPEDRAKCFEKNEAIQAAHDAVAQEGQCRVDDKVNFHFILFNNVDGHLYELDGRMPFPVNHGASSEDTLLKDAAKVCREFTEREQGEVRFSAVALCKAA
Excerpt: as §1, §2

[3] = test system: non-proteasomal DUBs (UCH-L1, UCH-L3, USP2CD, USP7CD, USP8CD, BAP1); assay: Recombinant non-proteasomal DUBs with ubiquitin-AMC, % activity; assay type: biochemical
Description: In vitro proteasome activity assays using 20S CP (2 nM) (Boston Biochem) were performed at 37° C. in 100-μl reaction buffer (25 mM Hepes, 0.5 mM EDTA, 0.03% SDS). Samples were incubated for 10 min with indicated compound followed by addition of 10 μM Suc-LLVY-AMC, Z-LLE-AMC or Boc-LRR-AMC for the detection of chymotrypsin-like, caspase-like and trypsin-like activity respectively. For DUB inhibition assays 19S RP (5 nM), 26S (5 nM) UCH-L1 (5 nM), UCH-L3 (0.3 nM), USP2CD (5 nM) USP7CD (5 nM) USP8CD (5 nM) and BAP1 (5 nM) were incubated with b-AP15 followed by addition of ubiquitin-AMC (1000 nM). Fluorescence was monitored using Wallac Multilabel counter or Tecan Infinite M1000 equipped with 360 nm excitation and 460 nm emission filters. Substrate overlay assays. Native gel electrophoresis was performed as described (41). In brief 4 μg of purified 26S proteasome (Boston Biochem) was mixed with 10 or 50 μM b-AP15 and incubated at 37° C. for 10 min. Samples were resolved on 4% non-denaturing PAGE. Gels were submerged in assay buffer (20 mM Tris-HCL, 5 mM MgCl2, 1 mM ATP, 0.1 mM Suc-LLVY-AMC) and proteasomes were visualized under UV illumination.
HCT-116 cells were treated for 3 h with b-AP15 (1 μM) and the proteasomes were affinity purified (FIG. 12a). […] Recombinant non-proteosomal DUBs were treated with b-AP15 and % activity determined. […]

C=CC(=O)N1C/C(=C\c2ccc([N+](=O)[O-])cc2)C(=O)/C(=C/c2ccc([N+](=O)[O-])cc2)C1 [b-AP15]
activity of non-proteasomal DUB USP5 [1]: without affecting the activity | activity of non-proteasomal DUB UCHL1 [2]: without affecting the activity | inhibition of recombinant non-proteasomal DUBs [3]: does not inhibit non-proteasomal DUBs

From patent US9856511B2, “Protease deubiquitinating inhibitor screening” (priority 2011, dated 2018)
